# Test system: writhing in Cox standard strain albino male mice
# Assay: mouse-writhing test (analgesic), acetic acid-induced writhing
# Assay type: in vivo
# Conditions: oral (p.o.), corn oil-acacia emulsion, writhing induced by intraperitoneal 0.55% (55 mg/kg) acetic acid, read-out: ED50 (effective dosage needed to inhibit 50% of the writhing)
# Protocol: An intraperitoneal injection of 0.55% (55 mg/kg.) acetic acid induces writhing in the mice, which is characterized by contraction of the abdominal musculature, extension of the hindlegs, and rotation of the trunk. The compounds were administered in a corn oil-acacia emulsion. The number of writhes is counted for both the control and treated animals and the percent inhibition computed as follows: [formula]
# All dosages were given orally (p.o.) and are expressed in mg/kg. The term "ED50 " means an effective dosage needed to inhibit 50% of the writhing.
row,SMILES,ED50
1,"COc1ccc(-c2nc(-c3ccc(Br)cc3)sc2-c2ccc(OC)cc2)cc1 [2-(4-Bromophenyl)-4,5-bis(4-methoxyphenyl)thiazole]",1.46 mg/kg
2,"COc1ccc(-c2nc(-c3ccc(Cl)cc3)sc2-c2ccc(OC)cc2)cc1 [2-(4-Chlorophenyl)-4,5-bis(4-methoxyphenyl)thiazole]",3.75 mg/kg
3,"COc1ccc(-c2nc(-c3ccc(F)cc3)sc2-c2ccc(OC)cc2)cc1 [2-(4-Fluorophenyl)-4,5-bis(4-methoxyphenyl)thiazole]",0.82 mg/kg
4,"COc1ccc(-c2nc(-c3ccccc3)sc2-c2ccc(OC)cc2)cc1 [2-Phenyl-4,5-bis(4-methoxyphenyl)thiazole]",2.3 mg/kg
